Test results from patent US20230285261A1, “FRAGRANCE COMPOSITION COMPRISING A FRAGRANCE COMPONET AND A NON-ODOROUS FRAGRANCE MODULATOR” (Coty Inc., priority 2020, published 2023).

Text: Classical perfume contain a high % of ethanol to solubilize perfume raw materials.

Max Solubility in 83% Ethanol/17% Glucam solution: 0.431 g
Max Solubility in 88% Ethanol/12% Water solution: 0.273 g
solubility increase, glucam-containing vs classical ethanol solution: 57.8%
SMILES: C[C@@H]1CC[C@H]2C(C)(C)[C@H]3C[C@@]12CC[C@@]3(C)O [Cerdol Crystals, Cedrol Crystals]
